Tests used:
[1] = Odorant solubility in SPR running buffer, inferred from the binding response; type: physicochemical
Experimental: Fresh odorant lilial solutions were made as follows. Pure odorant was diluted in ethanol to 0.5 M. This solution was diluted 67 times in PBS, 0.1% CHAPS, 0.02% CHS, 0.1% DDM to obtain a 7.5 mM odorant solution in running buffer with 1% (v/v) ethanol. Further dilutions were made in running buffer containing 1% (v/v) ethanol to obtain a concentration series of 5 μM, 10 μM, 20 μM and 40 μM of odorant lilial.
For the actual binding measurements, the odorant concentration series were injected from low to high concentration over control and derivatized surfaces for 30 seconds with a flow rate of 60 μl/min. Zero concentration blank buffer cycles were included as negative control samples. Solvent correction procedures were included to compensate for any DMSO related bulk refractive index variations and performed as described previously^(34). Non-specific binding effects to sensor surface CM4 were absent for all analyses reported.

[2] = target: T1, hOR17-4 (Homo sapiens, UniProt P34982); conditions: cited from earlier work
T1 sequence (P34982 1-312): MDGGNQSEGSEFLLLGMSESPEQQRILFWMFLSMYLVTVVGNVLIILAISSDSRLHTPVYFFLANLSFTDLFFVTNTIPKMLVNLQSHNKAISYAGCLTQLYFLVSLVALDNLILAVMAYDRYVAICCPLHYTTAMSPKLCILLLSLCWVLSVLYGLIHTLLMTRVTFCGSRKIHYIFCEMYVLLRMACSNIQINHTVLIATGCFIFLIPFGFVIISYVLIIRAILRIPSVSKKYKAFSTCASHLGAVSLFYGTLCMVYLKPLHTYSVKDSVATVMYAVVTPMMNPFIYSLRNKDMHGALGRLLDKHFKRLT

[3] = target: T1, hOR17-4; assay: Surface plasmon resonance (Biacore A100) odorant binding assay; design: made in house; host or cells: cell-free expression, wheat germ extract (Roche RTS); uncleaned lysate supernatant captured on the chip; conditions: SPR
Experimental: All odorant binding experiments were performed on a Biacore™ A100 (GE Healthcare, Uppsala, Sweden) at 25° C. A Biacore™ A100 was used in the present studies since it has a parallel flow configuration thus allowing assay development e.g. solubilization conditions to be tested and optimized in parallel in a multiplexed format. The sensor chip CM4, amine coupling kit, HBS (10 mM Hepes, 0.15 M NaCl, pH 7.4) and PBS were from (GE Healthcare, Uppsala, Sweden).
The anti Rho-tag antibody 1D4 at 40 μg/ml in 10 mM sodium acetate pH 5.5 was immobilized onto a series S sensor chip using standard amine-coupling chemistry in HBS running buffer at 10 μl/min (33). The amount of coupled 1D4 was about 5500 RU. Control surfaces were prepared similarly without protein derivatization and utilized as a reference surfaces for compound binding experiments.
Cell-free lysate containing the expressed olfactory receptor was centrifuged for […] at 14000×g at 4° C., to remove larger particles. The supernatant, containing about 0.6 mg/ml olfactory receptor, was immediately captured on the surface plasmon resonance (SPR) chip using PBS, 0.1% CHAPS, 0.02% CHS, 0.1% DDM and 1% (v/v) ethanol as running buffer at 10 μl/min.
Fresh odorant lilial solutions were made as follows. […]

CC(C=O)Cc1ccc(C(C)(C)C)cc1 (stereo not drawn) [lilial]
solubility at high concentrations ([1]; SPR running buffer): very low
concentration above which the response does not reach equilibrium (odorant starts to fall out of solution) ([1]; running buffer PBS, 0.1% CHAPS, 0.02% CHS, 0.1% DDM, 1% (v/v) ethanol): above 10 μM
agonist activity at hOR17-4 ([2]; in vivo studies): known agonist
affinity constant reported in vivo ([2]; in vivo): micromolar range
dose response binding (RU) ([3]; lilial 5-40 μM, 25° C., receptor from cell-free production captured via 1D4 antibody): binding response increases by increasing odorant concentration
binding constant (approximately estimated) ([3]; exact value could not be determined because of low solubility): within micromolar range
